Test results reported in ChEMBL document CHEMBL2375219, “Discovery of new potential hits of Plasmodium falciparum enoyl-ACP reductase through ligand- and structure-based drug design approaches” (Bioorg Med Chem Lett, 2013).

assay: Inhibition of Plasmodium falciparum enoyl-ACP reductase expressed in Escherichia coli BL21(DE3) assessed as inhibition of crotonyl-CoA reduction to butyryl-CoA by UV-Vis spectrophotometric analysis

Row | Structure (SMILES) | pIC50
1 | O=C1/C(=C/c2ccc(O)cc2)SC(=S)N1c1ccc(Cl)cc1 | 4.676
2 | O=C1/C(=C/c2ccc([N+](=O)[O-])cc2)SC(=S)N1c1ccc(F)cc1 | 4.833
3 | COc1cccc(N2C(=O)/C(=C/c3ccc(C(=O)O)cc3)SC2=S)c1 | 5.009
4 | O=C(O)c1ccc(/C=C2\SC(=S)N(c3cccc(Cl)c3)C2=O)cc1 | 5.06
5 | O=C(O)c1ccccc1/C=C1\SC(=S)N(c2cccc(Cl)c2)C1=O | 4.921
6 | O=C1/C(=C/c2ccc(O)c([N+](=O)[O-])c2)SC(=S)N1c1cccc2ccccc12 | 4.535
7 | O=C1/C(=C/c2ccc([N+](=O)[O-])cc2)SC(=S)N1c1cccc(C(F)(F)F)c1 | 4.896
8 | O=C1/C(=C/c2ccc(Cl)c([N+](=O)[O-])c2)SC(=S)N1c1cccc(Cl)c1 | 4.73
9 | O=C1/C(=C/c2ccc(O)cc2)SC(=S)N1c1ccc([N+](=O)[O-])cc1 | 5.387
10 | O=C(O)c1ccc(/C=C2\SC(=S)N(c3ccccc3)C2=O)cc1 | 5.041
11 | O=C1/C(=C/c2ccc(O)cc2)SC(=S)N1c1ccccc1 | 5.032
12 | O=C(O)c1ccc(/C=C2\SC(=S)N(c3ccc(O)cc3)C2=O)cc1 | 5.056
13 | CCOC(=O)c1ccc(/C=C2\SC(=S)N(c3cccc(Cl)c3)C2=O)cc1 | 4.724
14 | O=C1/C(=C/c2ccc(O)cc2)SC(=S)N1c1ccc(Br)cc1 | 4.955
15 | COC(=O)c1ccc(N2C(=O)/C(=C/c3cccc(OC)c3)SC2=S)cc1 | 4.565
16 | COc1ccc(/C=C2\SC(=S)N(c3cccc(OC)c3)C2=O)cc1 | 4.879
17 | O=C(O)c1ccc(/C=C2\SC(=S)N(c3ccccc3F)C2=O)cc1 | 4.79
18 | COC(=O)c1ccc(/C=C2\SC(=S)N(c3cccc(O)c3)C2=O)cc1 | 5.081
19 | COc1ccc(/C=C2\SC(=S)N(c3cccc(C(F)(F)F)c3)C2=O)cc1 | 5.187
20 | O=C(O)c1ccccc1/C=C1\SC(=S)N(c2ccc(F)cc2)C1=O | 4.573
21 | CCOc1ccc(N2C(=O)/C(=C/c3ccc(O)cc3)SC2=S)cc1 | 5.081

Other lines, results leading:

Row | pIC50 | Structure (SMILES)
22 | 5.009 | Cc1cccc(N2C(=O)/C(=C/c3ccc(O)c(Br)c3)SC2=S)c1
23 | 5.066 | O=C1/C(=C/c2ccc(O)cc2)SC(=S)N1c1cccc(F)c1
24 | 6.097 | O=C1/C(=C/c2ccc(O)c(O)c2)SC(=S)N1c1cccc(Cl)c1
25 | 4.857 | CCOc1cc(/C=C2\SC(=S)N(c3ccc(Br)cc3)C2=O)ccc1O
26 | 5.004 | O=C1/C(=C/c2cc(O)c(O)c(Br)c2)SC(=S)N1c1cccc(C(F)(F)F)c1
27 | 6.602 | Cc1ccc(N2C(=O)/C(=C/c3ccc(O)c(O)c3)SC2=S)cc1C
28 | 5.066 | O=C1/C(=C/c2cccc(O)c2)SC(=S)N1c1ccccc1
29 | 6.301 | Cc1ccc(N2C(=O)/C(=C/c3ccc(O)c(O)c3)SC2=S)c(C)c1
30 | 4.91 | COc1cccc(N2C(=O)/C(=C/c3ccc(O)cc3)SC2=S)c1
31 | 5.102 | O=C1/C(=C/c2ccc(O)c(O)c2)SC(=S)N1c1ccc(Cl)cc1
32 | 5.004 | COc1cc(/C=C2\SC(=S)N(c3ccc([N+](=O)[O-])cc3)C2=O)cc(Cl)c1O
33 | 4.627 | COc1ccc(/C=C2\SC(=S)N(c3cccc([N+](=O)[O-])c3)C2=O)cc1Br
34 | 5.041 | COc1cccc(N2C(=O)/C(=C/c3cccc(O)c3)SC2=S)c1
35 | 5.004 | COc1ccc(N2C(=O)/C(=C/c3ccc(OC)c(O)c3)SC2=S)cc1
36 | 5.022 | CCOc1cc(/C=C2\SC(=S)N(c3ccccc3C)C2=O)ccc1O
